# Reference: US20110152314A1, “USE OF TENATOPRAZOLE FOR THE TREATMENT OF GASTROESOPHAGEAL REFLUX DISEASE” (SIDEM PHARMA, priority 2002, published 2011)
# Read-outs that look alike come from different tables or passages of the source.
# Tests used:
# Assay type in all cases: in vivo, human
# [1] = Phase I study, pharmacokinetic parameters after oral single dose and daily dose for 7 days; conditions: for AUC(0-t) / Cmax at 7 days / Tmax at 7 days / half-life at 7 days / Cmax / Tmax / half-life: human, oral; for AUC(0-t): po, read-out: AUC 0-t area under the curve, between time 0 and the last measurable concentration; for Cmax at 7 days / Cmax: read-out: Cmax maximum concentration; for Tmax at 7 days / Tmax: read-out: Tmax time required to attain maximum concentration
# Method: The doses tested were 10, 20, 40 and 80 mg of tenatoprazole.
# In this table, the abbreviations employed have the following meaning:
# Cmax maximum concentration
# Tmax time required to attain maximum concentration
# T1/2 elimination half-life
# AUC0-t area under the curve, between time 0 and the last measurable concentration.
# The AUC0-inf value was calculated by extrapolation.
# [2] = system: patients with atypical symptoms of gastroesophageal reflux; assay: Clinical treatment of patients with atypical symptoms of gastroesophageal reflux; parameters: Safety: key: +: moderate; ++: ranging from moderate to highly favorable; +++: highly favorable; conditions: oral; as to Evolution of symptom: key: +: moderate; ++: ranging from moderate to highly favorable; +++: highly favorable
# From the text: (§1) Some clinical examples are given below, which show the effects of treatment on patients suffering from gastroesophageal reflux or dyspepsia, treated by the oral administration of tenatoprazole.
# [3] = system: patients with symptoms of functional dyspepsia; assay: Clinical treatment of patients with symptoms of functional dyspepsia; parameters: Safety: key: +: moderate; ++: ranging from moderate to highly favorable; +++: highly favorable; conditions: oral
# From the text: as §1
# [4] = in vivo, repeated dose (7 days) 10 mg daily
# [5] = in vivo, repeated dose (7 days) 20 mg daily
# [6] = in vivo, repeated dose (7 days) 40 mg daily
# [7] = in vivo, repeated dose (7 days) 80 mg daily
# [8] = patient 26, asthma, link with GERD ++, 12 weeks
# [9] = patient 27, dental caries, link with GERD +, 12 weeks
# [10] = patient 29, noct. cough, link with GERD +++, 7 weeks
# [11] = patient 31, pharyngitis, link with GERD +, 8 weeks
# [12] = patient 33, asthma, link with GERD ++, 12 weeks
# [13] = patient 34, dysphonia, link with GERD ++, 4 weeks
# [14] = patient 34, pharyngitis, link with GERD ++, 8 weeks
# [15] = patient 36, dysphonia, link with GERD ++, 5 weeks
# [16] = patient 36, noct. cough, link with GERD ++, 8 weeks
# [17] = patient 44, pharyngitis, link with GERD +, 4 weeks
# [18] = patient 45, pseudo-angina, link with GERD ++, 8 weeks
# [19] = patient 49, pseudo-angina, link with GERD ++, 12 weeks
# [20] = patient 25, epigastric discomfort, 12 weeks
# [21] = patient 28, distension, 4 weeks
# [22] = patient 30, nocturnal heartburn, 8 weeks
# [23] = patient 34, early satiety, 8 weeks
# [24] = patient 36, epigastric discomfort, 8 weeks
# [25] = patient 38, epigastric pain, 8 weeks
# [26] = patient 38, sensation of gastric fullness, 8 weeks
# [27] = patient 39, epigastric pain, 4 weeks
# [28] = patient 42, early satiety, 6 weeks
# [29] = patient 45, epigastric pain, 6 weeks
smiles,measurement,setting,value
"COc1ccc2[nH]c([S+]([O-])Cc3ncc(C)c(OC)c3C)nc2n1 (centres unmarked) [tenatoprazole, 5-methoxy-2-[[(4-methoxy-3,5-dimethyl-2-pyridyl)methyl]sulfinyl]imidazo[4,5-b]pyridine]",AUC(0-t),"[1]; in vivo, 10 mg, repeated dose (7 days) 10 mg daily",13000 ng·h/mL
same,AUC(0-t),"[1]; in vivo, 10 mg, single dose 10 mg",8000 ng·h/mL
same,AUC(0-t),"[1]; in vivo, 20 mg, repeated dose (7 days) 20 mg daily",36000 ng·h/mL
same,AUC(0-t),"[1]; in vivo, 20 mg, single dose 20 mg",24000 ng·h/mL
same,AUC(0-t),"[1]; in vivo, 40 mg, repeated dose (7 days) 40 mg daily",75000 ng·h/mL
same,AUC(0-t),"[1]; in vivo, 40 mg, single dose 40 mg",43000 ng·h/mL
same,AUC(0-t),"[1]; in vivo, 80 mg, repeated dose (7 days) 80 mg daily",218000 ng·h/mL
same,AUC(0-t),"[1]; in vivo, 80 mg, single dose 80 mg",97000 ng·h/mL
same,Cmax at 7 days,[1]; [4],1600 ng/mL
same,Tmax at 7 days,[1]; [4],3 h
same,half-life at 7 days,"[1]; in vivo, repeated dose (7 days) 10 mg daily, read-out: T½ elimination half-life (converted)",300 min
same,Cmax at 7 days,[1]; [5],3000 ng/mL
same,Tmax at 7 days,[1]; [5],2 h
same,half-life at 7 days,"[1]; in vivo, repeated dose (7 days) 20 mg daily, read-out: T½ elimination half-life (converted)",480 min
same,Cmax at 7 days,[1]; [6],5500 ng/mL
same,Tmax at 7 days,[1]; [6],3 h
same,half-life at 7 days,"[1]; in vivo, repeated dose (7 days) 40 mg daily, read-out: T½ elimination half-life (converted)",540 min
same,Cmax at 7 days,[1]; [7],11800 ng/mL
same,Tmax at 7 days,[1]; [7],2 h
same,half-life at 7 days,"[1]; in vivo, repeated dose (7 days) 80 mg daily, read-out: T½ elimination half-life (converted)",552 min
same,Cmax,"[1]; in vivo, single dose 10 mg",900 ng/mL
same,Tmax,"[1]; in vivo, single dose 10 mg",4 h
same,half-life,"[1]; in vivo, single dose 10 mg, read-out: T½ elimination half-life (converted)",300 min
same,Cmax,"[1]; in vivo, single dose 20 mg",2400 ng/mL
same,Tmax,"[1]; in vivo, single dose 20 mg",4 h
same,Cmax,"[1]; in vivo, single dose 40 mg",5300 ng/mL
same,Tmax,"[1]; in vivo, single dose 40 mg",3 h
same,half-life,"[1]; in vivo, single dose 40 mg, read-out: T½ elimination half-life (converted)",360 min
same,Cmax,"[1]; in vivo, single dose 80 mg",8300 ng/mL
same,Tmax,"[1]; in vivo, single dose 80 mg",3 h
same,half-life,"[1]; in vivo, single dose 80 mg, read-out: T½ elimination half-life (converted)",420 min
same,half-life,"[1]; plasma, after a single dose, depending on the dose (10-80 mg), read-out: mean elimination half-lives",300 to 360 min
same,half-life at 7 days,"[1]; plasma, after administration for seven days, depending on the dose (10-80 mg), read-out: mean elimination half-lives",300 to 570 min
same,"half-life compared with other proton pump inhibitors (omeprazole, esomeprazole)",[1]; in vivo,some seven times longer
same,"dose dependence of Cmax, AUC0-t and AUC0-inf","[1]; single or repeated administration, 10-80 mg",increased in a linear fashion
same,Evolution of symptom,[2]; [8],+++
same,Safety,[2]; [8],+++
same,Evolution of symptom,[2]; [9],0
same,Safety,[2]; [9],++
same,Evolution of symptom,[2]; [10],+++
same,Safety,[2]; [10],+++
same,Evolution of symptom,[2]; [11],+
same,Safety,[2]; [11],+++
same,Evolution of symptom,[2]; [12],++
same,Safety,[2]; [12],+++
same,Evolution of symptom,[2]; [13],++
same,Safety,[2]; [13],+++
same,Evolution of symptom,[2]; [14],++
same,Safety,[2]; [14],+++
same,Evolution of symptom,[2]; [15],+++
same,Safety,[2]; [15],+++
same,Evolution of symptom,[2]; [16],+++
same,Safety,[2]; [16],++
same,Evolution of symptom,[2]; [17],++
same,Safety,[2]; [17],+++
same,Evolution of symptom,[2]; [18],+++
same,Safety,[2]; [18],+++
same,Evolution of symptom,[2]; [19],+++
same,Safety,[2]; [19],+++
same,Evolution of symptom,[3]; [20],++
same,Safety,[3]; [20],+++
same,Evolution of symptom,[3]; [21],+
same,Safety,[3]; [21],+++
same,Evolution of symptom,[3]; [22],+++
same,Safety,[3]; [22],+++
same,Evolution of symptom,[3]; [23],+++
same,Safety,[3]; [23],+++
same,Evolution of symptom,"[3]; patient 35, heartburn, 8 weeks",+++
same,Safety,"[3]; patient 35, heartburn, 8 weeks",+++
same,Evolution of symptom,[3]; [24],+++
same,Safety,[3]; [24],++
same,Evolution of symptom,[3]; [25],+++
same,Safety,[3]; [25],++
same,Evolution of symptom,[3]; [26],+++
same,Safety,[3]; [26],+++
same,Evolution of symptom,[3]; [27],++
same,Safety,[3]; [27],++
same,Evolution of symptom,"[3]; patient 41, heartburn, 6 weeks",+++
same,Safety,"[3]; patient 41, heartburn, 6 weeks",+++
same,Evolution of symptom,[3]; [28],++
same,Safety,[3]; [28],+++
same,Evolution of symptom,"[3]; patient 44, nausea, 10 weeks",+++
same,Safety,"[3]; patient 44, nausea, 10 weeks",+++
same,Evolution of symptom,[3]; [29],+++
same,Safety,[3]; [29],++
same,Evolution of symptom,"[3]; patient 47, nausea, 4 weeks",++
same,Safety,"[3]; patient 47, nausea, 4 weeks",+++
same,Evolution of symptom,"[3]; patient 49, nausea, 8 weeks",++
same,Safety,"[3]; patient 49, nausea, 8 weeks",+++
